Results as given in patent US20080221161A1, “HETEROCYCLIC MODULATORS OF TGR5 FOR TREATMENT OF DISEASE” (KALYPSYS, INC., priority 2007, published 2008).

Biological target: T1, human TGR5 (Homo sapiens, UniProt Q8TDU6)
T1 construct: expressed in transfected cells; host or cells: HEK-293 cells, stably transfected (pcDNA 3.1, Fugene6, geneticin selection)
T1 sequence (Q8TDU6 1-330): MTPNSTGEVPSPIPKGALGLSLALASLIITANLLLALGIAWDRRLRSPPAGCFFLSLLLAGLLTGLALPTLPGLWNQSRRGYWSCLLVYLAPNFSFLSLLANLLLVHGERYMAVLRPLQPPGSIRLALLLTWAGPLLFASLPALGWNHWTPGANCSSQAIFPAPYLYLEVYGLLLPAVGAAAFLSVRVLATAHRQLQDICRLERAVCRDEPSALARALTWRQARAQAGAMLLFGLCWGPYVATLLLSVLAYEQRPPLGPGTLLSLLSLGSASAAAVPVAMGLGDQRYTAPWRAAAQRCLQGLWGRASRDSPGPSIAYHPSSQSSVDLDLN
Assay: cAMP production assay in HEK293-TGR5 cells
Type: cell-based
Conditions: HEK293 cells stably expressing human TGR5; 30 minutes stimulation; LANCE cAMP TR-FRET; read-out: cAMP Production in 293-TGR5 Cells EC50
Experimental: HEK293 cells stably expressing TGR5 (HEK293-TGR5) were established by stably transfecting HEK-293 cells with an expression vector (pcDNA 3.1, Invetrogen) inserted with human TGR5 cDNA using Fugene6 (Roche, Indianapolis, Ind.) according to conventional methods. Cells were grown in DMEM (invitrogen, Carlsbad, Calif.) supplemented with 10% FBS, 1% penicillin/streptomycin under geneticin selection. The presence of TGR5 transcripts in these cells was confirmed using branched DNA (bDNA, Genospectra, Inc., Fremont Calif.) following the manufacturer's protocol and using specific probes for human TGR5. cAMP production assay was performed in high throughput 1536 well format using LANCE cAMP detection kit (Perkin Elmer Inc., Boston, Mass.) according to the manufacturer's protocol. Briefly, HEK293-TGR5 cells were harvested using non-enzymatic cell dissociation buffer (Invitrogen, Carlsbad, Calif.) and suspended in DMEM supplemented with 0.1% FBS at a density of 800,000 cells/ml. Alexa antibody was added to the cell suspension, and 4 ul of the mixture was dispensed in white opaque tissue culture treated Greiner 1536 well plates (USA Scientific, Inc., Ocala, Fla.). After an overnight incubation at 37C in an atmosphere of 10% CO2 and 95% humidity, 1 ul of 5 mM IBMX (Sigma, St. Louis, Mo.) solution in DMEM was dispensed for a final concentration of 1 mM. Cells were then stimulated with test compounds for 30 minutes, after which time 5 ul of detection reagent was added and incubated for 1-7 hrs at room temperature. TR-FRET signal was detected using the Viewlux (Perkin Elmer Inc., Boston Mass.). EC50 values were determined using Graph Pad Prizm analysis (GraphPad Software, Inc).

Row | Structure (SMILES) | EC50 [µM]
1 | COc1ccc2cc(CNC3CCc4ccccc43)c(-c3ccncc3)nc2c1 (racemic) [Example 86, (±)-N-((7-Methoxy-2-(pyridin-4-yl)quinolin-3-yl)methyl)-2,3-dihydro-1H-inden-1-amine] | < 10
2 | COc1ccc2cc(C(C)NCCc3ccc(Br)cc3)c(-c3ccsc3)nc2c1 (racemic) [Example 143, (±)-N-(4-Bromophenethyl)-1-(7-methoxy-2-(thiophen-3-yl)quinolin-3-yl)ethanamine] | > 10
3 | CC(NCCc1ccc(Br)cc1)c1cc2ccc(O)cc2nc1-c1ccsc1 (racemic) [Example 144, (±)-3-(1-(4-Bromophenethylamino)ethyl)-2-(thiophen-3-yl)quinolin-7-ol] | > 10
4 | Cc1cccc2cc(CNCCc3ccc(Cl)cc3)c(-c3ccsc3)nc12 [Example 4, 2-(4-Chlorophenyl)-N-((8-methyl-2-(thiophen-3-yl)quinolin-3-yl)methyl)ethanamine] | > 10
5 | Cc1cccc2cc(CNCc3ccc(C(F)(F)F)cc3)c(-c3ccsc3)nc12 [Example 5, 1-(8-Methyl-2-(thiophen-3-yl)quinolin-3-yl)-N-(4-(trifluoromethyl)benzyl)methanamine] | < 10
6 | COc1ccc2cc(CNCCc3ccc(Cl)cc3)c(-c3cccnc3)nc2c1 [Example 7, 2-(4-Chlorophenyl)-N-((7-methoxy-2-(pyridin-3-yl)quinolin-3-yl)methyl)ethanamine] | < 10
7 | COc1ccc2cc(CNCCc3ccc(F)cc3)c(-c3cccnc3)nc2c1 [Example 8, 2-(4-Fluorophenyl)-N-((7-methoxy-2-(pyridin-3-yl)quinolin-3-yl)methyl)ethanamine] | < 10
8 | COc1ccc2cc(CNCc3ccc(N(C)C)cc3)c(-c3cccnc3)nc2c1 [Example 11, 4-(((7-Methoxy-2-(pyridin-3-yl)quinolin-3-yl)methylamino)methyl)-N,N-dimethylaniline] | < 10
9 | FC(F)(F)Oc1ccc2cc(CNCCc3ccc(Cl)cc3)c(-c3ccsc3)nc2c1 [Example 13, 2-(4-Chlorophenyl)-N-((2-(thiophen-3-yl)-7-(trifluoromethoxy)quinolin-3-yl)methyl)ethanamine] | > 10
10 | FC(F)(F)Oc1ccc2cc(CNCCc3ccc(Cl)cc3)c(-c3cccnc3)nc2c1 [Example 14, 2-(4-Chlorophenyl)-N-((2-(pyridin-3-yl)-7-(trifluoromethoxy)quinolin-3-yl)methyl)ethanamine] | > 10
11 | FC(F)(F)Oc1ccc2cc(CNCCc3ccc(Br)cc3)c(-c3cccnc3)nc2c1 [Example 16, 2-(4-Bromophenyl)-N-((2-(pyridin-3-yl)-7-(trifluoromethoxy)quinolin-3-yl)methyl)ethanamine] | > 10
12 | COc1ccc2cc(CNC(=O)c3ccc(C(F)(F)F)cc3)c(-c3ccsc3)nc2c1 [Example 17, N-((7-methoxy-2-(thiophen-3-yl)quinolin-3-yl)methyl)-4-(trifluoromethyl)benzamide] | > 10
13 | COc1ccc2cc(C(=O)NCc3ccc(C(F)(F)F)cc3)c(-c3ccsc3)nc2c1 [Example 18, 7-methoxy-2-(thiophen-3-yl)-N-(4-(trifluoromethyl)benzyl)quinoline-3-carboxamide] | > 10
14 | COc1ccc2cc(C(=O)NCCc3ccc(Cl)cc3)c(-c3ccsc3)nc2c1 [Example 19, N-(4-Chlorophenethyl)-7-methoxy-2-(thiophen-3-yl)quinoline-3-carboxamide] | < 10
15 | COc1ccc2cc(CNCCc3ccc(Cl)cc3)c(-c3cnn(C)c3)nc2c1 [Example 21, 2-(4-Chlorophenyl)-N-((7-methoxy-2-(1-methyl-1H-pyrazol-4-yl)quinolin-3-yl)methyl)ethanamine] | < 10
16 | COc1ccc2cc(CNCCc3ccc(Cl)cc3)c(-c3ccccc3F)nc2c1 [Example 25, 2-(4-Chlorophenyl)-N-((2-(2-fluorophenyl)-7-methoxyquinolin-3-yl)methyl)ethanamine] | < 10
17 | COc1ccc2nc(-c3ccsc3)c(CNCCc3ccc(Cl)cc3)cc2c1 [Example 27, 2-(4-Chlorophenyl)-N-((6-methoxy-2-(thiophen-3-yl)quinolin-3-yl)methyl)ethanamine] | > 10
18 | FC(F)(F)c1ccc(CNCc2cc3ccccc3nc2-c2ccsc2)cc1 [Example 28, 1-(2-(Thiophen-3-yl)quinolin-3-yl)-N-(4-(trifluoromethyl)benzyl)-methanamine] | < 10
19 | Clc1ccc(CCNCc2cc3ccccc3nc2-c2ccsc2)cc1 [Example 29, 2-(4-Chlorophenyl)-N-((2-(thiophen-3-yl)quinolin-3-yl)methyl)-ethanamine] | > 10

The remaining lines, values ahead:

Row | EC50 [µM] | Structure (SMILES)
20 | > 10 | COc1ccc2cc(CNCc3ccc(C(F)(F)F)cc3)c(-c3ccsc3)nc2c1 [Example 1, 1-(7-methoxy-2-(thiophen-3-yl)quinolin-3-yl)-N-(4-(trifluoromethyl)benzyl)methanamine]
21 | < 10 | COc1ccc2cc(CNCc3cccc(C(F)(F)F)c3)c(-c3ccsc3)nc2c1 [Example 3, 1-(7-Methoxy-2-(thiophen-3-yl)quinolin-3-yl)-N-(3-(trifluoromethyl)benzyl)methanamine]
22 | < 10 | COc1ccc2cc(CNCc3ccc(C(F)(F)F)cc3)c(-c3cccnc3)nc2c1 [Example 6, 1-(7-Methoxy-2-(pyridin-3-yl)quinolin-3-yl)-N-(4-(trifluoromethyl)benzyl)methanamine]
23 | > 10 | COc1ccc2cc(CNCc3ccc(OC(F)(F)F)cc3)c(-c3cccnc3)nc2c1 [Example 10, 1-(7-Methoxy-2-(pyridin-3-yl)quinolin-3-yl)-N-(4-(trifluoromethoxy)benzyl)methanamine]
24 | < 10 | FC(F)(F)Oc1ccc2cc(CNCc3ccc(C(F)(F)F)cc3)c(-c3ccsc3)nc2c1 [Example 12, 1-(2-(Thiophen-3-yl)-7-(trifluoromethoxy)quinolin-3-yl)-N-(4-(trifluoromethyl)benzyl)methanamine]
25 | < 10 | FC(F)(F)Oc1ccc2cc(CNCc3ccc(C(F)(F)F)cc3)c(-c3cccnc3)nc2c1 [Example 15, 1-(2-(Pyridin-3-yl)-7-(trifluoromethoxy)quinolin-3-yl)-N-(4-(trifluoromethyl)benzyl)-methanamine]
26 | < 10 | COc1ccc2cc(CNCc3ccc(C(F)(F)F)cc3)c(-c3cnn(C)c3)nc2c1 [Example 20, 1-(7-Methoxy-2-(1-methyl-1H-pyrazol-4-yl)quinolin-3-yl)-N-(4-(trifluoromethyl)benzyl)methanamine]
27 | < 10 | COc1ccc2cc(CNCCc3ccc(Cl)cc3)c(-c3ccncc3)nc2c1 [Example 22, 2-(4-Chlorophenyl)-N-((7-methoxy-2-(pyridin-4-yl)quinolin-3-yl)methyl)ethanamine]
28 | < 10 | COc1ccc2cc(CNCc3ccc(C(F)(F)F)cc3)c(-c3ccncc3)nc2c1 [Example 23, 1-(7-Methoxy-2-(pyridin-4-yl)quinolin-3-yl)-N-(4-(trifluoromethyl)benzyl)methanamine]
29 | > 10 | COc1ccc2cc(CNCc3ccc(C(F)(F)F)cc3)c(-c3ccccc3F)nc2c1 [Example 24, 1-(2-(2-Fluorophenyl)-7-methoxyquinolin-3-yl)-N-(4-(trifluoromethyl)benzyl)methanamine]
30 | > 10 | COc1ccc2nc(-c3ccsc3)c(CNCc3ccc(C(F)(F)F)cc3)cc2c1 [Example 26, 1-(6-Methoxy-2-(thiophen-3-yl)quinolin-3-yl)-N-(4-(trifluoromethyl)benzyl)methanamine]
